Patent US12599672B2, “KRAS proteolysis targeting chimeras” (PAQ Therapeutics Inc., priority 2023, dated 2026)

Experiments:
Type in all cases: cell-based
KRAS G12D = biological target: T1, KRAS G12D (Homo sapiens, UniProt P01116, G12D); experiment: KRAS G12D HiBit assay; details: AsPc-1-KRAS (G12D)-HiBit-KI cell, compound treatment for 24 hours, absolute DC50
T1 construct: AsPc-1-KRAS (G12D)-HiBit-KI cell (Pharmaron); host or cells: AsPc-1-KRAS (G12D)-HiBit-KI cells (HiBiT knock-in at the endogenous KRAS locus)
T1 sequence (P01116 1-188 isoform P01116-2 G12D): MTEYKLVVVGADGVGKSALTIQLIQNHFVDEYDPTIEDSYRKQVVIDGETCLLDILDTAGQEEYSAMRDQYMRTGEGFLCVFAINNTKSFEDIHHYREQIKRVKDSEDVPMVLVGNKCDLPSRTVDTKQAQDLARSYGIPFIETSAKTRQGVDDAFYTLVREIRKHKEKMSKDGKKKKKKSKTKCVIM
Summary of the method: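 Cells were treated for 24 h with compounds in a 3-fold, 10-point dilution series from a 0.3 mM DMSO stock, then equilibrated 15 min at room temperature. KRAS G12D HiBiT levels were read by luminescence after lytic Nano-Glo HiBiT reagent with LgBiT; inhibition calculated relative to 0.1% DMSO high control.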

KRAS G12V = biological target: T2, KRAS G12V (Homo sapiens, UniProt P01116, G12V); experiment: KRAS G12V HiBit assay; details: SW620-KRAS (G12V)-HiBit-KI cells, compound treatment for 24 hours
T2 construct: SW620-KRAS (G12V)-HiBit-KI cell (Pharmaron); host or cells: SW620-KRAS (G12V)-HiBit-KI cells (HiBiT knock-in at the endogenous KRAS locus)
T2 sequence (P01116 1-188 isoform P01116-2 G12V): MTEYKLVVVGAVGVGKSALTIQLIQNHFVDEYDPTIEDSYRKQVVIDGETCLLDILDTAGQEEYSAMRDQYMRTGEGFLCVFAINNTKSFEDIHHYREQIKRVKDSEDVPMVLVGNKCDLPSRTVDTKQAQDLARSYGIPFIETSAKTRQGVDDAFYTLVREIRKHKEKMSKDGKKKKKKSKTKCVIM
Summary of the method: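 HiBiT-tagged KRAS G12V cells treated 24 h with compound in a 3-fold, 10-point series (0.3 mM DMSO stock); lytic HiBiT reagent with LgBiT added after 15 min room-temperature equilibration. Degradation calculated against 0.1% DMSO high control.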

KRAS = biological target: T3, KRAS (Homo sapiens, UniProt P01116); experiment: KRASamp MSD assay; details: KE39 (KRAS amplified) cells, treated with test compounds for 24 hr, MSD readout of KRAS degradation
T3 construct: endogenous in cells; host or cells: KE39 (KRAS amplified) cells
T3 sequence (P01116 1-188 isoform P01116-2): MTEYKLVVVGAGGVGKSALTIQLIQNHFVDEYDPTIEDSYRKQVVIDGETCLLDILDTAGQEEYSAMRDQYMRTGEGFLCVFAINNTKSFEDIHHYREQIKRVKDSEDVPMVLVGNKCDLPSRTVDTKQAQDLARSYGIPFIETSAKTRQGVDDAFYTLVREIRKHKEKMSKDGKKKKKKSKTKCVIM
Summary of the method: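 KRAS-amplified KE39 cells treated with compound for 24 hr, then lysed in RIPA buffer with protease/phosphatase inhibitors. KRAS protein measured by MSD sandwich immunoassay against a recombinant WT KRAS standard curve; DC50 derived from curve fitting of degradation.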

Row | SMILES | DC50 (KRAS G12D; class symbols) | DC50 (KRAS G12V; class symbols) | DC50 (KRAS) | DC50 (KRAS G12V; numeric bounds) | DC50 (KRAS G12D; numeric bounds given in place of class symbols)
1 | CCc1c(F)ccc2cc(O)cc(-c3ccc4c(N5CCC[C@@](C)(O)C5)nc(OC[C@@]56CCCN5[C@H](COC(=O)N5CCC(CN7CCC(c8cc9c(cc8F)n(C8CCC(=O)NC8=O)c(=O)n9C)CC7)CC5)CC6)nc4c3F)c12 (stereo partly drawn) [Compound 424, ((3S,7aS)-7a-(((7-(8-ethyl-7-fluoro-3-hydroxynaphthalen-1-yl)-8-fluoro-4-((R)-3-hydroxy-3-methylpiperidin-1-yl)quinazolin-2-yl)oxy)methyl)hexahydro-1H-pyrrolizin-3-yl)methyl 4-((4-(1-(2,6-dioxopiperidin-3-yl)-6-fluoro-3-methyl-2-oxo-2,3-dihydro-1H-benzo[d]imidazol-5-yl)piperidin-1-yl)methyl)piperidine-1-carboxylate] | < 0.1 µM | < 0.01 µM | < 0.001 µM |  | 
2 | CCc1c(F)ccc2cc(O)cc(-c3ncc4c(N5CCC[C@@](C)(O)C5)nc(OC[C@]56CCCN5[C@@H](COC(=O)N5CCC(CN7CCC(c8ccc9c(c8)n(C)c(=O)n9C8CCC(=O)NC8=O)CC7)CC5)CC6)nc4c3F)c12 (stereo partly drawn) [Compound 120, ((3R,7aR)-7a-(((7-(8-Ethyl-7-fluoro-3-hydroxynaphthalen-1-yl)-8-fluoro-4-((R)-3-hydroxyl-3-methylpiperidin-1-yl)pyrido[4,3-d]pyrimidin-2-yl)oxy)methyl)hexahydro-1H-pyrrolizin-3-yl)methyl4-((4-(1-(2,6-dioxopiperidin-3-yl)-3-methyl-2-oxo-2,3-dihydro-1H-benzo[d]imidazol-5-yl)piperidin-1-yl)methyl) piperidine-1-carboxylate] | < 0.1 µM | < 0.01 µM | < 0.001 µM |  | 
3 | CCc1c(F)ccc2cc(O)cc(-c3ncc4c(N5CCC[C@@](C)(O)C5)nc(OC[C@@]56CCCN5C(CN5CCC(Cc7ccc8c(c7)n(C)c(=O)n8C7CCC(=O)NC7=O)CC5)CC6)nc4c3F)c12 (stereo partly drawn) [Compound 383, 3-(5-((1-(((7aS)-7a-(((7-(8-ethyl-7-fluoro-3-hydroxynaphthalen-1-yl)-8-fluoro-4-((R)-3-hydroxy-3-methylpiperidin-1-yl)pyrido[4,3-d]pyrimidin-2-yl)oxy)methyl)hexahydro-1H-pyrrolizin-3-yl)methyl)piperidin-4-yl)methyl)-3-methyl-2-oxo-2,3-dihydro-1H-benzo[d]imidazol-1-yl)piperidine-2,6-dione] | < 0.1 µM |  | ≥ 0.01 µM | > 0.0915 µM | 
4 | CCc1c(F)ccc2cc(O)cc(-c3ncc4c(N5CCC[C@@](C)(O)C5)nc(OC[C@@]56CCCN5[C@H](COC(=O)N5CCC(CN7CCC(Cc8ccc9c(c8)n(C)c(=O)n9C8CCC(=O)NC8=O)CC7)CC5)CC6)nc4c3F)c12 (stereo partly drawn) [Compound 429, ((3S,7aS)-7a-(((7-(8-ethyl-7-fluoro-3-hydroxynaphthalen-1-yl)-8-fluoro-4-((R)-3-hydroxy-3-methylpiperidin-1-yl)pyrido[4,3-d]pyrimidin-2-yl)oxy)methyl)hexahydro-1H-pyrrolizin-3-yl)methyl 4-((4-((1-(2,6-dioxopiperidin-3-yl)-3-methyl-2-oxo-2,3-dihydro-1H-benzo[d]imidazol-5-yl)methyl)piperidin-1-yl)methyl)piperidine-1-carboxylate] | < 0.1 µM | < 0.01 µM | < 0.001 µM |  | 
5 | CCc1c(F)ccc2cc(O)cc(-c3ncc4c(N5CCC[C@@](C)(O)C5)nc(OC[C@]56CCCN5[C@H](COC(=O)NC5CCCN(c7ccc8c(c7)n(C)c(=O)n8C7CCC(=O)NC7=O)C5)CC6)nc4c3F)c12 (stereo partly drawn) [Compound 309, ((3S,7aR)-7a-(((7-(8-ethyl-7-fluoro-3-hydroxynaphthalen-1-yl)-8-fluoro-4-((R)-3-hydroxy-3-methylpiperidin-1-yl)pyrido[4,3-d]pyrimidin-2-yl)oxy)methyl)hexahydro-1H-pyrrolizin-3-yl)methyl (1-(1-(2,6-dioxopiperidin-3-yl)-3-methyl-2-oxo-2,3-dihydro-1H-benzo[d]imidazol-5-yl)piperidin-3-yl)carbamate] |  | 0.01 to 0.1 µM | 0.001 to 0.01 µM |  | > 0.1 µM
